Data taken from patent US6759419B2, “Pyrrolidinone derivatives, their preparation and pharmaceutical composition comprising the same” (Korea Institute of Science and Technology, priority 2001, dated 2004).

Legend:
[1] = target: muscarinic receptors; experiment: [3H]-N-methyl-scopolamine ([3H]-NMS) affinity screening test; design: species or system rat; conditions: inhibition of 50% of specific binding of [3H]-NMS to the receptor; cortex receptor of rats
Source text: [^3H]-N-methyl-scopolamine ([^3H]-NMS) Affinity Screening Test
In order to exclude the interaction between subtypes, human recombinant muscarinic receptor subtypes 1, 2 and 3 expressed in CHO cells (M1, M2 and M3, Biosignal, Canada) were purchased and used as receptor sources. [^3H]-N-methyl-scopolamine (NEN, NET-636) was used as radioisotope labeled ligands, and atropine was used for the measurement of the non-specific binding ability. About 10 kinds of experimental apparatuses including Liquid Scintillation Counter (MicroBeta 1450 plus), Inotech cell harvester (96-well) were used.
In order to determine the effect of each compound on M1 and M2 receptors, the compounds were reacted with the receptors using radioisotope labeled ligands. After the reaction, the excess unbound ligands were removed by filtering with a glass fiber filter. The amount of radioisotopes remaining on the washed filter plate was then measured to quantify the binding reaction between the receptors and the ligands and, from the results, the affinity of the drugs for the receptors was determined.
The freeze-stored receptors at −70° C. were suspended in test buffer solutions and then the screening test (BioRad protein) was carried out to determine the optimum concentration of the proteins. Thereafter, 50 μL of hot-ligands and 10 μL of test drugs were added to 96-well plate and 100 μL of 50 mM TRIS buffer (pH 7.2) containing 10 mM MgCl2 and 1 mM EDTA was added as a test buffer. The final volume of the reaction was […]. The reaction was initiated by adding 100 μL of the diluted receptor suspension, and continued for 60 minutes on a shaking incubator at 27° C. This test for the test drugs was repeated four times. After 60 minutes, the reaction was terminated by adding cold TRIS buffer (0.5 mL, pH 7.4). The excess unbound radioisotopes were removed from the reaction mixture using Inotech cell harvester system. After washing the mixture, the radioactivity detected by the filter mat was measured using Liquid Scintillation Counter. As primary stage of the efficacy screening, the drugs at two concentrations (1 μM, 10 μM) were screened for their affinity for the receptors. As secondary stage, the drugs showing remarkable efficacies were determined at the lower concentrations. Finally, IC50 values were calculated at the gradient of 10 concentrations. […] From the saturation affinity screening test, Kd and Bmax values, and IC50 or Ki values of each test drugs were calculated by observing the non-linear regression using prism (Graphpad software Inc.,USA). […]
(§1) The following table 1 illustrates the affinity of representative compounds of the present invention for muscarinic receptors measured by binding of [^3H]-N-methyl scopolamine ([^3H]-NMS) and [^3H]-oxotremorine ([^3H]-Oxo-M) to cortex receptor of rats. […]

[2] = target: muscarinic receptors (Oxo-M binding receptor, forebrain synapse membranes); experiment: [3H]-oxotremorine-M ([3H]-Oxo-M) affinity screening test; conditions: inhibition of 50% of specific binding of [3H]-Oxo-M (5 nM) to the receptor; rat brain membranes
Method: [^3H]-oxotremorine-M ([^3H]-Oxo-M) Affinity Screening Test
The experimental principle was the same as [^3H]-NMS affinity screening test. The present experiment was carried out in order to identify the pharmacological functions (an agonist or antagonist) of the compounds showing high affinity in [3H]-NMS affinity screening test. The functions of the compounds may be determined by carrying out both of [^3H]-NMS and [^3H]-Oxo-M (oxotremorine) affinity screening tests to measure their respective IC50 values and calculating ratios (NMS/Oxo-M) of the measured IC50 values. Generally, the compounds are evaluated as muscarinic receptor full agonists when the ratio is greater than 180, as partial agonists when the ratio is from 14 to 130, and as antagonists when the ratio is from 0.2 to 1.9.
Preparation of Brain Membrane
Synapse membranes for binding assay of Oxo-M binding receptor of muscarinic receptors were directly prepared and used in the laboratory as follows: male Sparague-Dawley rats (supplied from Laboratory Animal Center of Korea Research Institute of Chemical Technology, 250 to 300 g) were sacrificed by decapitation. The brain tissues were immediately removed and the forebrain was obtained, which was sectioned into small pieces. After adding 10-fold amount of ice-cooled solution of sucrose (0.32M), the sectioned forebrain was homogenized using Teflon-glass homogenizer (Contorque, Eberbach) at 10 strokes and 500 rpm, centrifuged at 1000 g for 15 minutes, and then the supernatant was again centrifuged at 17000 g for 20 minutes. The pellet was stored at −20° C. and then used.
Before the pellet was used at this assay, it was suspended in 10 mL of […] HEPES buffer (pH 7.4), again centrifuged at 17000 g for 15 minutes and then washed. Finally, the washed membrane was diluted in ice-cooled 20 mM HEPES buffer (pH 7.4) to the final concentration of 1:100 (wet wt/v) and used at this assay. All test samples were tested four times, and 20 mM HEPES buffer (pH 7.4) was used as a buffer for screening test. […] The radioactivity of the receptor binding ligands was detected by Liquid Scintillation Counter (MicroBeta Plus, Wallac, Finland).
The test drugs were diluted sequentially for the required concentrations by dissolving them in dimethylsulfoxide (DMSO) and used in the test. […] From the saturated affinity screening test, Kd and Bmax values, and IC50 or Ki values of respective test drugs were calculated by observing the non-linear regression using prism (Graphpad software Inc., USA). […]
as §1

CN1CCC=C(C2=NOC(CN3CCCC3=O)C2)C1 (centres unmarked) [Example 18, 1-[3-(1-methyl-1,2,5,6-tetrahydro-pyridin-3-yl)-4,5-dihydro-isoxazol-5-yl-methyl]-pyrrolidin-2-one]
IC50 [1]: 180 nM
IC50 [2]: 30 nM

COC(=O)C1=CCCN(C)C1 [Arecoline, reference compound]
IC50 [1]: 87100 nM
IC50 [2]: 140 nM

CN1CCC=C(c2cc(CN3CCCC3=O)on2)C1 [Example 23, 1-[3-(1-methyl-1,2,5,6-tetrahydro-pyridin-3-yl)-isoxazol-5-yl-methyl]-pyrrolidin-2-one]
IC50 [1]: 1490 nM
IC50 [2]: 370 nM

CN1CCC=C(C2=NOC(N3CCCC3=O)C2)C1 (centres unmarked) [Example 15, 1-[3-(1-methyl-1,2,5,6-tetrahydropyridin-3-yl)-4,5-dihydro-isoxazol-5-yl]-pyrrolidin-2-one]
IC50 [1]: 8310 nM
IC50 [2]: 220 nM
